Molecular target: T1, Menin (Homo sapiens, UniProt O00255)
T1 sequence (O00255 whole entry): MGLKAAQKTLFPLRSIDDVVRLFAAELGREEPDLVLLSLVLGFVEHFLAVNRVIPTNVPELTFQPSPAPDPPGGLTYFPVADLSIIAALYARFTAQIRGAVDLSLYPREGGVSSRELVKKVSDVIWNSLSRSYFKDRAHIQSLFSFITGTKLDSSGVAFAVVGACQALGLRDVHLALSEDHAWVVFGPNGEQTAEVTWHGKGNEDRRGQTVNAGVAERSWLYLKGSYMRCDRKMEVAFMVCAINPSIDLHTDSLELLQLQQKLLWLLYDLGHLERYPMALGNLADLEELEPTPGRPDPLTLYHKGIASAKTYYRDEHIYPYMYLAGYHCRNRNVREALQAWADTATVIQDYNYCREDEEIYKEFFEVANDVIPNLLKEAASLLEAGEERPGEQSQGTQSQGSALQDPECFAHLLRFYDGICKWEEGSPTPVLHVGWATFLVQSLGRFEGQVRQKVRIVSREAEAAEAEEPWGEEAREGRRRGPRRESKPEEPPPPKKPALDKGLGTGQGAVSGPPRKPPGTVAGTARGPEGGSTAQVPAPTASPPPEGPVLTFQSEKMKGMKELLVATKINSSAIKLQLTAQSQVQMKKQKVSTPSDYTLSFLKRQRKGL
Experiment: After the incubation, the signal was detected with RUBYstar (BMG LABTECH).

C=C1C[C@H]2CC[C@@H]1N[C@@H]2C(=O)N1CCC2(CC1)CN(c1ncncc1Oc1ccc(F)cc1C(=O)N(C(C)C)C(C)C)C2
IC50: 7.9 nM

C=C1C[C@H]2CC[C@@H]1N[C@@H]2C(=O)N1CC2(C1)CN(c1ncncc1Oc1ccc(F)cc1C(=O)N(C(C)C)C(C)C)C2
IC50: 6.2 nM

From ChEMBL document CHEMBL5728071, “Optically active azabicyclo ring derivative” (2020)
